“And” between values parts separate entries of the source, which are not always exact repeats. Equal entries are not always repeated.
Columns and labels:
Proteasome subunit beta = target: T1, Proteasome subunit beta (Trypanosoma cruzi, UniProt O96673); assay: Trypanosoma cruzi proteasome chymotrypsin-like activity (TcProtChymo) assay.; assay type: functional
T1 sequence (O96673 whole entry): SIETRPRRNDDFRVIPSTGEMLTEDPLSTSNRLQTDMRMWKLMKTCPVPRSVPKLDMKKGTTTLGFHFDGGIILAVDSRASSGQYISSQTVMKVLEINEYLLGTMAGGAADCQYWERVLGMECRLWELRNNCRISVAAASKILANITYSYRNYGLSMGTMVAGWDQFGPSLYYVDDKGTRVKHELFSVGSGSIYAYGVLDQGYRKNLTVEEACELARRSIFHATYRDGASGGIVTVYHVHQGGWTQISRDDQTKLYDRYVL

[1] = Trypanosoma cruzi proteasome luciferase counter-screen; assay type: functional, N/A
Leishmania donovani = assay: Leishmania intramacrophage assay; assay type: functional, organism-based; conditions: Leishmania donovani
[2] = To identify inhibition of the IFN signalling (Jak-Stat) pathway via expression of an eGFP reporter gene under the control of an IFN-stimulated response element (ISRE) containing MxA promoter.; assay type: functional, Homo sapiens
Lysine--tRNA ligase = Lysine--tRNA ligase (Plasmodium falciparum (isolate 3D7), UniProt Q8IDJ8); assay: Pf-KRS-1 (Lysyl-RNA Synthetase-1, KRS-1, cytosolic KRS) from Plasmodium falciparum. Inhibitor assay, 384 well plate, luminescence read.; assay type: functional
Lysine--tRNA ligase, sequence (Q8IDJ8 whole entry): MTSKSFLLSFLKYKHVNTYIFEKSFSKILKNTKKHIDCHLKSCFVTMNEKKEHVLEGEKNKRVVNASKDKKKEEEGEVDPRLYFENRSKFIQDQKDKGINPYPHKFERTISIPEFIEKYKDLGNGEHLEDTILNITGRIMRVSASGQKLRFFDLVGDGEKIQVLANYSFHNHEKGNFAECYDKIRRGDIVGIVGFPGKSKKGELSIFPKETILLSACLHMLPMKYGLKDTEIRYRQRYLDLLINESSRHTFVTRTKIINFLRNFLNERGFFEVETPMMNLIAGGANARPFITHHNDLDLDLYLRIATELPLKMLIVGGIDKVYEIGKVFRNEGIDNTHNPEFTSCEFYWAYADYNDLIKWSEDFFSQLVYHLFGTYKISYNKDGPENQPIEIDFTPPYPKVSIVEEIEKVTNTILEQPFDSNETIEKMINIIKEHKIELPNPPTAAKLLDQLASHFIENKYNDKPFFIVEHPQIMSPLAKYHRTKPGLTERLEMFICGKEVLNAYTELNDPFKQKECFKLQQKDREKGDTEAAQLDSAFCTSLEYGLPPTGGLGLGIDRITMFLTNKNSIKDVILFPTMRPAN

[3] = microbe, parasite or virus in culture; conditions: Mycobacterium tuberculosis, 72 h, read-out: pIC50 (converted)
[4] = microbe, parasite or virus in culture; conditions: Mycobacterium tuberculosis, 96 h, read-out: pIC50 (converted)
Histidine--tRNA ligase = target: T2, Histidine--tRNA ligase (Leishmania infantum, UniProt A4I591); assay: Leishmania infantum Histidine tRNA synthetase (LdHisRS); assay type: functional
T2 sequence (A4I591 whole entry): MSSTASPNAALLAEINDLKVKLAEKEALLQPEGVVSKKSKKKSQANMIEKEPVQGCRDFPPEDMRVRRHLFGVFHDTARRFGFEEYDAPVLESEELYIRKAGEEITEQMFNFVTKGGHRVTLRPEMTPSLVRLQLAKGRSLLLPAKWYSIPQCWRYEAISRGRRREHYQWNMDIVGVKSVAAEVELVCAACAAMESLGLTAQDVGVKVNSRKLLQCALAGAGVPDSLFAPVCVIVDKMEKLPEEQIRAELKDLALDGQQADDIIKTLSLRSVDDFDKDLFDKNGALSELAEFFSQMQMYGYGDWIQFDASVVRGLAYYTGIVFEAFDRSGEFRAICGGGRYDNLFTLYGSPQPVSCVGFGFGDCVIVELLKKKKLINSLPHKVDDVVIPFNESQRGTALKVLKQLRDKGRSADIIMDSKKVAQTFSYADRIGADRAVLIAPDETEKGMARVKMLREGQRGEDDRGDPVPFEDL

[5] = target: Chromo domain-containing protein 1 (Saccharomyces cerevisiae (strain ATCC 204508 / S288c) (Baker's yeast), UniProt P32657); assay: ScCHD-1 Enzyme Inhibition Assay; assay type: functional
Chromo domain-containing protein 1, sequence (P32657 whole entry, the tested form may be a part): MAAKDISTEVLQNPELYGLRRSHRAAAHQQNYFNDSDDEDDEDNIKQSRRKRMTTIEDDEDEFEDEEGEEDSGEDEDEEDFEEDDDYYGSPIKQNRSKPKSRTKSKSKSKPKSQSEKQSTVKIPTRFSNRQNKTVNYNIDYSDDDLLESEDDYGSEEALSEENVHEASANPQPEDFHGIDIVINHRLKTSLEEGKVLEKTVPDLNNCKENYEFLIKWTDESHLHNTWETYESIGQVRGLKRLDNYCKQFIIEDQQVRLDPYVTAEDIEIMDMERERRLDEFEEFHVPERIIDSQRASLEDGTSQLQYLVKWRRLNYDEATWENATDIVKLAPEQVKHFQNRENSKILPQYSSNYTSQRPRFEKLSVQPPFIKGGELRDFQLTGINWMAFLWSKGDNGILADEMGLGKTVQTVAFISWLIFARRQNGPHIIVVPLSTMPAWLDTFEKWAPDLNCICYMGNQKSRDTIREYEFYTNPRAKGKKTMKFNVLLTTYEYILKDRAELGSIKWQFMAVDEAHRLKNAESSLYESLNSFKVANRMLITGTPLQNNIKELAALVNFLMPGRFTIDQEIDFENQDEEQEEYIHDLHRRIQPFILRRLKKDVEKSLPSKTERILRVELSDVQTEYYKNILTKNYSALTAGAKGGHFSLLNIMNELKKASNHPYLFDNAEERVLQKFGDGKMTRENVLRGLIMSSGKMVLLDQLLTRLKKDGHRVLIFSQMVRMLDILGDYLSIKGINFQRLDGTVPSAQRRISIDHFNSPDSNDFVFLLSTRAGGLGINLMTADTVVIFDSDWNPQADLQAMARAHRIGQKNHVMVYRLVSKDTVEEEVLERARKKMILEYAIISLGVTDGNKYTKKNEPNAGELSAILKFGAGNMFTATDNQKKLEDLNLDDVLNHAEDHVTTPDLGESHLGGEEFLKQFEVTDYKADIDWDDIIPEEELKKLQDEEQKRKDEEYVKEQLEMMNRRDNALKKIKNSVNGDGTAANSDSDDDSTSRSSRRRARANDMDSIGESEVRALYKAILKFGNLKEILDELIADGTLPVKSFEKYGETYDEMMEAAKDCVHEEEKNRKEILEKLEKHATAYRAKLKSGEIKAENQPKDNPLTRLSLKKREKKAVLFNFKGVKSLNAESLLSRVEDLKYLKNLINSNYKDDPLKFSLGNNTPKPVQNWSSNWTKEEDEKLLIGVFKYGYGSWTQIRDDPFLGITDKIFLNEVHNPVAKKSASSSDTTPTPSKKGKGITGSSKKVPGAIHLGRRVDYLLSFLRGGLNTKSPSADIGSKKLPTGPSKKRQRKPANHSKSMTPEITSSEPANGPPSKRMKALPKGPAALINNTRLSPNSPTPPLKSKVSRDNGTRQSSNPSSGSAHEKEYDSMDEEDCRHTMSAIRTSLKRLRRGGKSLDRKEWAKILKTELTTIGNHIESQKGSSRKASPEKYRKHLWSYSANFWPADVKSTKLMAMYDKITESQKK

ClpP1P2 = ClpP1P2 (Mycobacterium tuberculosis (strain ATCC 25618 / H37Rv), UniProt P9WPC3+P9WPC5); assay: in vitro assay to detect presence of AMC directly proportional to the activity of ClpP1P2. GHDDI collaboration.; assay type: functional
ClpP1P2, sequence (P9WPC5 whole entry): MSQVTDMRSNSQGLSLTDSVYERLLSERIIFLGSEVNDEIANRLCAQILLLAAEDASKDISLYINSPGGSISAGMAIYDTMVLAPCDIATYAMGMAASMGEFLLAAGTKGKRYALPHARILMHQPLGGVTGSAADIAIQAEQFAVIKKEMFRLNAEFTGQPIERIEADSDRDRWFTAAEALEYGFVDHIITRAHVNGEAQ
ClpP1P2, sequence (P9WPC3 whole entry): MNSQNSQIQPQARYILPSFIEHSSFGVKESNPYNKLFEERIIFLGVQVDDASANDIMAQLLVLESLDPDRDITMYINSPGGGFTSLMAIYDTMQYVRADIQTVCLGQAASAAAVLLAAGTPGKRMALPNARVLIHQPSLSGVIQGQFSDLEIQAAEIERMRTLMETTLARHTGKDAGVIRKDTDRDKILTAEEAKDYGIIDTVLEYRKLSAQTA

Wolbachia pipientis = assay: Anti-Wolbachia Cell-Based Screen; assay type: functional; conditions: Wolbachia pipientis
[6] = target: Polyketide synthase Pks13 (Mycobacterium tuberculosis (strain ATCC 25618 / H37Rv), UniProt I6X8D2); assay: Mycobacterium tuberculosis Polyketide synthase 13 Thioesterase (PKS13); assay type: functional
Polyketide synthase Pks13, sequence (I6X8D2 whole entry): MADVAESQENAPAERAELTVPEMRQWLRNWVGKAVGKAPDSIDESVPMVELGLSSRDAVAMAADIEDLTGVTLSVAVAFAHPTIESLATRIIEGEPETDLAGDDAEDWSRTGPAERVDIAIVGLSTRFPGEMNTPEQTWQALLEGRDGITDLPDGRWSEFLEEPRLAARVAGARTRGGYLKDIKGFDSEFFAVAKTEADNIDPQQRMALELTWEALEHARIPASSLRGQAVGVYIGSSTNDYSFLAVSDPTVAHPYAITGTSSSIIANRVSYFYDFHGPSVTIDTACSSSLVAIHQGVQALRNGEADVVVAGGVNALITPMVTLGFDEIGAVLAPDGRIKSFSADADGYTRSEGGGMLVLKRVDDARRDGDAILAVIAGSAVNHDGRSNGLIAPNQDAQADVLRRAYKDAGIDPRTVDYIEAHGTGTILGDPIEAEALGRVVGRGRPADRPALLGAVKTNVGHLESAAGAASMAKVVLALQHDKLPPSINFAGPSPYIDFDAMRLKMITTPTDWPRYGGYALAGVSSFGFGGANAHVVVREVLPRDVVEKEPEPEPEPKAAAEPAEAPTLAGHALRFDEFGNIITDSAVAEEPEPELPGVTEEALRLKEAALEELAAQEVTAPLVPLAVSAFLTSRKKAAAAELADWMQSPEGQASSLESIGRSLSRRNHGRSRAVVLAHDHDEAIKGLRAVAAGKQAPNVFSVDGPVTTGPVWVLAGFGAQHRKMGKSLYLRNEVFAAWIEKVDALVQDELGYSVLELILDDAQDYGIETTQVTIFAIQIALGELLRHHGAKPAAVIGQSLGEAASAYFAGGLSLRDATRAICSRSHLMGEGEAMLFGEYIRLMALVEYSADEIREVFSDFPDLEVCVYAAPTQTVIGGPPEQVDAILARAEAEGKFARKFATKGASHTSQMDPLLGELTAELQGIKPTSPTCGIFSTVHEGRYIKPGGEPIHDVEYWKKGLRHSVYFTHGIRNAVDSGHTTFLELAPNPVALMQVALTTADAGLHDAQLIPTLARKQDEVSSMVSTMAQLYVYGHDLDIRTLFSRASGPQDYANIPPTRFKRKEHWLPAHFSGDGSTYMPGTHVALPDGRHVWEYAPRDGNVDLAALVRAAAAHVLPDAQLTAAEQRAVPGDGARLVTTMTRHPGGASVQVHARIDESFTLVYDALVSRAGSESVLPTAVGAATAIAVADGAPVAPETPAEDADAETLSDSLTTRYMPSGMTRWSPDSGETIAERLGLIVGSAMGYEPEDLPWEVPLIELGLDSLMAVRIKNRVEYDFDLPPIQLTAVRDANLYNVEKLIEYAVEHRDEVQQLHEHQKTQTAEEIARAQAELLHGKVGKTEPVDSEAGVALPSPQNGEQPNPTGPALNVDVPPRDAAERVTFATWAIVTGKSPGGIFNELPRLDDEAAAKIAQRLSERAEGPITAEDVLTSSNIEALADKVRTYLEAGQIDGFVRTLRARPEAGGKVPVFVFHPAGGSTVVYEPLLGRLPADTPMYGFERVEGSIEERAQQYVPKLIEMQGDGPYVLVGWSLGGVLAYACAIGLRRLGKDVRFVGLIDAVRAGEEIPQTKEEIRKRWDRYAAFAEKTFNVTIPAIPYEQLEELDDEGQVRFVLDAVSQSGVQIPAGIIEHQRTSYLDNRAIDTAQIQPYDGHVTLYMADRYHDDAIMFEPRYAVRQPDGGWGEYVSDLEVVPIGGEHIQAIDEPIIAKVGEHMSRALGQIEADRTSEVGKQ

SMILES | IC50 (Proteasome subunit beta) | pIC50 [1] | pIC50 [2] | other results
CN(C)c1cc(CNC(=O)Nc2ccc(F)cc2)ccn1 | 14.4 µM and 16.9 µM | 4.234 and 4.227 | – | –
Cc1cc(C(C)C(=O)N2CCCN(Cc3cscn3)CC2)c(C)o1 (stereo not given) | > 100 µM | < 4 | – | –
Cc1ccc(C(=O)Nc2cn[nH]c2)cc1C | 13.3 µM and 12.6 µM | 4.136 and 4.208 | – | –
CCOc1ccc(S(=O)(=O)NCc2cccnc2N(C)C)cc1 | – | – | 5.549 and 5.242 | IC50 (Leishmania donovani): > 50.1 µM; IC50 (Lysine--tRNA ligase): > 50.1 µM
CC(C)N(CC(N)=O)Cc1csc(COc2ccc(F)cc2)n1 | – | – | 5.121 and 5.081 | –
CCn1ncc2c1CCCC2NCc1cc(Cl)c(OC)c(OC)c1 (stereo not given) | – | – | 4.746 and 4.672 | –
Cc1noc(NC(=O)c2ccc(C)c(F)c2)n1 | – | – | 4.682 and < 4.57 | IC50 [3]: 30.5 µM; IC50 [4]: 27.1 µM
Cc1cnn(CC2CN(c3cnc4ccccc4n3)CCO2)c1 (stereo not given) | 17.8 µM and 19.4 µM | 4.14 and 4.151 | – | IC50 [3]: 16.4 µM; IC50 [4]: 14.4 µM
CC(C)c1n[nH]c(C(=O)Nc2ccncc2)c1Br | – | – | 4.519 and 4.533 | IC50 (Leishmania donovani): > 50.1 µM
COc1cccc(CNc2cnn(C)c(=O)c2Cl)c1 | – | – | 4.709 and 5.107 | –
O=C(C1CCN(c2snc3ccccc23)CC1)N1CCCCCC1 | – | – | 4.575 and 4.655 | –
Cc1cc(C(=O)N2CCc3nnc(N)cc3C2)c(C)n1-c1cccnc1 | > 100 µM | < 4 | – | –
Cc1ccc(-c2nc(CN3CCC(C(=O)N(C)C)CC3)cs2)o1 | 46.3 µM and 43.1 µM | < 4 | – | –
CCOc1cc(/C=C/c2ncc(C(=O)O)s2)ccc1O | 15.5 µM and 21.9 µM | 4.099 and 4.094 | – | –
CCc1nc(CN2CCCN(C(=O)CCc3ccco3)CC2)cs1 | > 100 µM | < 4 | – | –
c1ccc2sc(N3CCOC(Cn4cccn4)C3)nc2c1 (stereo not given) | 18 µM and 17.7 µM | 4.135 and 4.203 | – | –

SMILES | IC50 (Proteasome subunit beta) | pIC50 [1] | pIC50 [2] | other results
Cc1nc(CN2CCOC(CNc3cccnn3)C2)oc1C (stereo not given) | > 100 µM | < 4 | – | –
CCC(C)NC(=O)NCCCn1nc2ccccn2c1=O (stereo not given) | – | – | < 4.21 | IC50 (Histidine--tRNA ligase): > 100 µM
OCC1CCCN1c1cc(NCc2ccc(Cl)s2)ncn1 (stereo not given) | – | – | 4.462 and 4.49 | –
Cc1nc(CN2CCCC(N(C)Cc3cscn3)C2)no1 (stereo not given) | 34.8 µM and 26.4 µM | < 4 | – | –
Cc1nc(C)n(C2CCCN(C(=O)c3ccc(N(C)C)nn3)C2)n1 (stereo not given) | – | – | < 4.21 | –
CC1CN(CC2CCCCC2)CCN1c1ccc2nncn2n1 (stereo not given) | – | – | 4.49 and 4.459 | IC50 [5]: > 29.5 µM; IC50 (ClpP1P2): > 100 µM
CCc1nnc2n1CCN(Cc1csc(-c3ccc(C)o3)n1)C2 | > 100 µM | < 4 | – | –
COc1cccc(-c2nc(CNCCn3cccn3)cs2)c1 | 13.4 µM and 11.8 µM | 4.359 and 4.346 | – | –
Cc1ccc(NCc2cncc3c2CCN(C(=O)C2CC=CC2)C3)nn1.Cl | > 100 µM | < 4 | – | –
Cl.c1ccc(-c2ccc(C3CNCCO3)nc2)cc1 (stereo not given) | 13.7 µM and 13 µM | 4.18 and 4.164 | – | –
COc1cccc(-c2noc(C3CCN(Cc4cccs4)C3)n2)c1.Cl (stereo not given) | 13.9 µM and 12.6 µM | 4.852 and 4.875 | – | –
COc1c(CNC2CCSc3ccc(F)cc32)c(C)nn1C.Cl (stereo not given) | – | – | 4.845 and 5.142 | IC50 (Wolbachia pipientis): > 10 µM
Cc1ccc(N2CC[C@H]3O[C@@H](C(=O)NCc4ccco4)CC[C@H]32)nn1.O=C(O)C(F)(F)F | > 100 µM | < 4 | – | –
O=C(NCCCN1CCOCC1)c1ccn(-c2ccc3ccccn23)n1.O=C(O)C(F)(F)F | > 100 µM | < 4 | – | –
CO[C@@H]1CN(Cc2scnc2C)[C@@H]2CCCO[C@@H]21.O=C(O)C(F)(F)F.O=C(O)C(F)(F)F | 8.6 µM and 10.8 µM | < 4 | – | IC50 (ClpP1P2): > 100 µM
COCCN1CCc2cc(C(=O)NCC3CC3)c(NC(C)C)nc2CC1.O=C(O)C(F)(F)F.O=C(O)C(F)(F)F | – | – | 5.014 and 5.099 | IC50 (ClpP1P2): > 100 µM; IC50 [6]: 18.4 µM and 14.5 µM
